target: T1, PLK1 (Homo sapiens, UniProt P53350); test: Biochemical Characterization Assay: HTRF kinase assay, GST-PLK1 phosphorylation of GST-p53; conditions: GST-PLK1, GST-p53 substrate
T1 construct: Full-length, active GST-PLK1 is purified from Sf9 insect cells; made in house; host or cells: Sf9 insect cells
Method in brief: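 Full-length active GST-PLK1 (Sf9, 3 ug/mL) phosphorylated full-length GST-p53 (E. coli) in Kinase Assay Buffer for 35 min at 37 °C. Stopped with EDTA; phospho-p53 detected by HTRF with anti-phospho-p53, Eu-anti-rabbit and APC-anti-GST antibodies.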

T1 sequence (P53350 whole entry): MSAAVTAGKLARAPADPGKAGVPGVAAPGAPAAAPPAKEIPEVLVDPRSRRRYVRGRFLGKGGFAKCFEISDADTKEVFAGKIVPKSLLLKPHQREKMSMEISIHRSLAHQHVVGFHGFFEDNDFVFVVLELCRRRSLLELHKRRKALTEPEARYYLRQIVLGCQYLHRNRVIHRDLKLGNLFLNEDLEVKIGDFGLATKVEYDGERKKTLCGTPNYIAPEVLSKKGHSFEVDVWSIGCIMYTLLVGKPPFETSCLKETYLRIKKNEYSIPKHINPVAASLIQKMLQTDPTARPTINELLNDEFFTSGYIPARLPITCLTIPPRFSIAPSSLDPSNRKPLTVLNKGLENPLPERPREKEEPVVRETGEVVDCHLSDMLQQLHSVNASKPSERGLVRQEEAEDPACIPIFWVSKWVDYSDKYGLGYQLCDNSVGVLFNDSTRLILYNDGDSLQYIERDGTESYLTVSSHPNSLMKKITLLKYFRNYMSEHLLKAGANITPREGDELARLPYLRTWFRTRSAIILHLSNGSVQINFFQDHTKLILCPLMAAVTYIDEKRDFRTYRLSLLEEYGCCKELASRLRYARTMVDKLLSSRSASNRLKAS

Row | IC50 | Compound
1 | 1 to 50 nM | COc1cc(C(=O)NCCN(C)C)c(F)cc1Nc1ncc2c(n1)N(C1CCCC1)CC(F)(F)C(=O)N2C [Example I-174, 4-(9-cyclopentyl-7,7-difluoro-5-methyl-6-oxo-6,7,8,9-tetra-hydro-5H-pyrimido[4,5-b][1,4]diazepin-2-ylamino)-N-(3-dimethylamino-ethyl)-2-fluoro-5-methoxy-benzamide]
2 | 1 to 50 nM | COc1cc(C(=O)NC2CCNCC2)c(F)cc1Nc1ncc2c(n1)N(C1CCCC1)CC(F)(F)C(=O)N2C [Example I-178, 4-(9-cyclopentyl-7,7-difluoro-5-methyl-6-oxo-6,7,8,9-tetrahydro-5H-pyrimido[4,5-b][1,4]diazepin-2-ylamino)-2-fluoro-5-methoxy-N-piperidin-4-yl-benzamide]
3 | 1 to 50 nM | CN1CCC(NC(=O)c2ccc(Nc3ncc4c(n3)N(C3CCCC3)CC(F)(F)C(=O)N4C)c(Cl)c2)CC1 [Example I-179, 3-chloro-4-(9-cyclopentyl-7,7-difluoro-5-methyl-6-oxo-6,7,8,9-tetrahydro-5H-pyrimido[4,5-b][1,4]diazepin-2-ylamino)-N-(1-methyl-piperidin-4-yl)-benzamide]
4 | 1 to 50 nM | CC(C)Oc1cc(C(=O)NC2CCN(C)CC2)ccc1Nc1ncc2c(n1)N(C1CCCC1)CC(F)(F)C(=O)N2C [Example I-180, 4-(9-cyclopentyl-7,7-difluoro-5-methyl-6-oxo-6,7,8,9-tetrahydro-5H-pyrimido[4,5-b][1,4]diazepin-2-ylamino)-3-isopropoxy-N-(1-methyl-piperidin-4-yl)-benzamide]
5 | 1 to 50 nM | CN1CCC(NC(=O)c2ccc(Nc3ncc4c(n3)N(C3CCCC3)CC(F)(F)C(=O)N4C)c(OC(F)(F)F)c2)CC1 [Example I-181, 4-(9-cyclopentyl-7,7-difluoro-5-methyl-6-oxo-6,7,8,9-tetrahydro-5H-pyrimido[4,5-b][1,4]diazepin-2-ylamino)-N-(1-methyl-piperidin-4-yl)-3-trifluoromethoxy-benzamide]
6 | 1 to 50 nM | CN1CCC(NC(=O)c2ccc(Nc3ncc4c(n3)N(C3CCCC3)CC(F)(F)C(=O)N4C)c(F)c2)CC1 [Example I-183, 4-(9-cyclopentyl-7,7-difluoro-5-methyl-6-oxo-6,7,8,9-tetrahydro-5H-pyrimido[4,5-b][1,4]diazepin-2-ylamino)-3-fluoro-N-(1-methyl-piperidin-4-yl)-benzamide]
7 | 1 to 50 nM | Cc1cc(C(=O)NC2CCN(C)CC2)ccc1Nc1ncc2c(n1)N(C1CCCC1)CC(F)(F)C(=O)N2C [Example I-185, 4-(9-cyclopentyl-7,7-difluoro-5-methyl-6-oxo-6,7,8,9-tetrahydro-5H-pyrimido[4,5-b][1,4]diazepin-2-ylamino)-3-methyl-N-(1-methyl-piperidin-4-yl)-benzamide]
8 | 1 to 50 nM | CCN1CCC(NC(=O)c2ccc(Nc3ncc4c(n3)N(C3CCCC3)CC(F)(F)C(=O)N4C)c(C)c2)CC1 [Example I-186, 4-(9-cyclopentyl-7,7-difluoro-5-methyl-6-oxo-6,7,8,9-tetrahydro-5H-pyrimido[4,5-b][1,4]diazepin-2-ylamino)-N-(1-ethyl-piperidin-4-yl)-3-methyl-benzamide]
9 | 1 to 50 nM | Cc1cc(C(=O)NC2CCOCC2)ccc1Nc1ncc2c(n1)N(C1CCCC1)CC(F)(F)C(=O)N2C [Example I-187, 4-(9-cyclopentyl-7,7-difluoro-5-methyl-6-oxo-6,7,8,9-tetrahydro-5H-pyrimido[4,5-b][1,4]diazepin-2-ylamino)-3-methyl-N-(tetrahydro-pyran-4-yl)-benzamide]
10 | 1 to 50 nM | Cc1cc(C(=O)NCCN(C)C)ccc1Nc1ncc2c(n1)N(C1CCCC1)CC(F)(F)C(=O)N2C [Example I-188, 4-(9-cyclopentyl-7,7-difluoro-5-methyl-6-oxo-6,7,8,9-tetrahydro-5H-pyrimido[4,5-b][1,4]diazepin-2-ylamino)-N-(2-dimethylamino-ethyl)-3-methyl-benzamide]
11 | 1 to 50 nM | Cc1cc(C(=O)NCCCN(C)C)ccc1Nc1ncc2c(n1)N(C1CCCC1)CC(F)(F)C(=O)N2C [Example I-189, 4-(9-cyclopentyl-7,7-difluoro-5-methyl-6-oxo-6,7,8,9-tetrahydro-5H-pyrimido[4,5-b][1,4]diazepin-2-ylamino)-N-(3-dimethylamino-propyl)-3-methyl-benzamide]
12 | 1 to 50 nM | CNC(=O)c1ccc(Nc2ncc3c(n2)N(C2CCCC2)CC(F)(F)C(=O)N3C)c(C)c1 [Example I-190, 4-(9-cyclopentyl-7,7-difluoro-5-methyl-6-oxo-6,7,8,9-tetrahydro-5H-pyrimido[4,5-b][1,4]diazepin-2-ylamino)-3,N-dimethyl-benzamide]
13 | 1 to 50 nM | Cc1cc(C(=O)NC2CCN(C(=O)OC(C)(C)C)CC2)ccc1Nc1ncc2c(n1)N(C1CCCC1)CC(F)(F)C(=O)N2C [Example I-191, 4-[4-(9-cyclopentyl-7,7-difluoro-5-methyl-6-oxo-6,7,8,9-tetrahydro-5H-pyrimido[4,5-b][1,4]diazepin-2-ylamino)-3-methyl-benzoylamino]-piperidine-1-carboxylic acid tert-butyl ester]
14 | 1 to 50 nM | Cc1cc(C(=O)NC2CCNCC2)ccc1Nc1ncc2c(n1)N(C1CCCC1)CC(F)(F)C(=O)N2C [Example I-192, 4-(9-cyclopentyl-7,7-difluoro-5-methyl-6-oxo-6,7,8,9-tetrahydro-5H-pyrimido[4,5-b][1,4]diazepin-2-ylamino)-3-methyl-N-piperidin-4-yl-benzamide]
15 | 1 to 50 nM | Cc1cc(C(N)=O)ccc1Nc1ncc2c(n1)N(C1CCCC1)CC(F)(F)C(=O)N2C [Example I-193, 4-(9-cyclopentyl-7,7-difluoro-5-methyl-6-oxo-6,7,8,9-tetrahydro-5H-pyrimido[4,5-b][1,4]diazepin-2-ylamino)-3-methyl-benzamide]
16 | 1 to 50 nM | CCc1cc(C(=O)NC2CCN(C)CC2)ccc1Nc1ncc2c(n1)N(C1CCCC1)CC(F)(F)C(=O)N2C [Example I-195, 4-(9-cyclopentyl-7,7-difluoro-5-methyl-6-oxo-6,7,8,9-tetrahydro-5H-pyrimido[4,5-b][1,4]diazepin-2-ylamino)-3-ethyl-N-(1-methyl-piperidin-4-yl)-benzamide]
17 | 1 to 50 nM | CCc1cc(C(=O)NC2CCN(CC)CC2)ccc1Nc1ncc2c(n1)N(C1CCCC1)CC(F)(F)C(=O)N2C [Example I-196, 4-(9-cyclopentyl-7,7-difluoro-5-methyl-6-oxo-6,7,8,9-tetrahydro-5H-pyrimido[4,5-b][1,4]diazepin-2-ylamino)-3-ethyl-N-(1-ethyl-piperidin-4-yl)-benzamide]
18 | 1 to 50 nM | CCc1cc(C(=O)NC2CCOCC2)ccc1Nc1ncc2c(n1)N(C1CCCC1)CC(F)(F)C(=O)N2C [Example I-197, 4-(9-cyclopentyl-7,7-difluoro-5-methyl-6-oxo-6,7,8,9-tetrahydro-5H-pyrimido[4,5-b][1,4]diazepin-2-ylamino)-3-ethyl-N-(tetrahydro-pyran-4-yl)-benzamide]
19 | 1 to 50 nM | CCc1cc(C(=O)NCCN(C)C)ccc1Nc1ncc2c(n1)N(C1CCCC1)CC(F)(F)C(=O)N2C [Example I-198, 4-(9-cyclopentyl-7,7-difluoro-5-methyl-6-oxo-6,7,8,9-tetrahydro-5H-pyrimido[4,5-b][1,4]diazepin-2-ylamino)-N-(2-dimethylamino-ethyl)-3-ethyl-benzamide]

Source: US8003785B2 (Takeda Pharmaceutical Company Limited, priority 2008, dated 2011)
